Numbered stars: 1 amine (or outer) side, 2 acyl side, 3 side chain; on linkers, the order of the positions; unused ones are H or OH. Bridge positions count the residues as written; N and C are the ends. Peptide text beside a SMILES is read from it. * marks the point of attachment. NH(4-amidinobenzyl) = N=C(N)c1ccc(CN*)cc1; Glutaryl = O=C(CCCC(=O)[*:2])[*:1]; X3 = NC(N)=NC/C=C/CN*
Experiments:
[1] = molecular target: T1, Furin (Homo sapiens, UniProt P09958); test: Inhibition of furin in human U2OS cells measured after 24 hrs by fluorescence assay; type: cell-based
[2] = test system: Mus musculus; test: Antifibrotic activity against bleomycin-induced mouse lung fibrosis model assessed as inhibition of TGF-beta secretion in lung at 10 mg/kg, po administered once daily; type: functional
[3] = test system: Mus musculus; test: Antifibrotic activity against bleomycin-induced mouse lung fibrosis model assessed as inhibition of hydroxyproline content in lung at 10 mg/kg, po administered once daily; type: functional
[4] = Inhibition of migration of human HT-1080 cells at 100 uM measured by calcein AM/ethidium homodimer (EthD-1) staining method; type: functional
[5] = molecular target: T1, Furin; test: Inhibition of Recombinant vaccinia-expressed furin (unknown origin) using Pyr-RTKR-MCA as substrate and measured by fluorescence based assay
[6] = Cytotoxicity against chinese hamster CHO-DG44 cells assessed as cell viability at 100 uM and measured after 2 hrs by WST-1 method; type: toxicity, cell-based, Cricetulus griseus; conditions: read-out: Activity
[7] = test system: RAW264.7; test: Protective activity against Anthrax toxin-induced cytotoxicity in mouse RAW264.7 cells measured by WST-1 method; type: functional; conditions: dose 100 µM
[8] = Cytotoxicity against human HT-1080 cells assessed as cell viability at 100 uM and measured after 2 hrs by WST-1 method; type: toxicity, cell-based; conditions: read-out: Activity
[9] = Protective activity against Pseudomonas aeruginosa exotoxin A-induced cytotoxicity in chinese hamster CHO-DG44 cells measured by WST-1 method; type: functional, Cricetulus griseus; conditions: dose 100 µM
[10] = molecular target: T1, Furin; test: Inhibition of furin (unknown origin)
[11] = Stability in mouse plasma assessed as half-life; type: ADME, cell-free
[12] = molecular target: T1, Furin; test: Inhibition of furin (unknown origin) using Pyr-RTKR-MCA as substrate incubated for 30 mins and measured by FRET assay

T1 sequence (P09958 whole entry): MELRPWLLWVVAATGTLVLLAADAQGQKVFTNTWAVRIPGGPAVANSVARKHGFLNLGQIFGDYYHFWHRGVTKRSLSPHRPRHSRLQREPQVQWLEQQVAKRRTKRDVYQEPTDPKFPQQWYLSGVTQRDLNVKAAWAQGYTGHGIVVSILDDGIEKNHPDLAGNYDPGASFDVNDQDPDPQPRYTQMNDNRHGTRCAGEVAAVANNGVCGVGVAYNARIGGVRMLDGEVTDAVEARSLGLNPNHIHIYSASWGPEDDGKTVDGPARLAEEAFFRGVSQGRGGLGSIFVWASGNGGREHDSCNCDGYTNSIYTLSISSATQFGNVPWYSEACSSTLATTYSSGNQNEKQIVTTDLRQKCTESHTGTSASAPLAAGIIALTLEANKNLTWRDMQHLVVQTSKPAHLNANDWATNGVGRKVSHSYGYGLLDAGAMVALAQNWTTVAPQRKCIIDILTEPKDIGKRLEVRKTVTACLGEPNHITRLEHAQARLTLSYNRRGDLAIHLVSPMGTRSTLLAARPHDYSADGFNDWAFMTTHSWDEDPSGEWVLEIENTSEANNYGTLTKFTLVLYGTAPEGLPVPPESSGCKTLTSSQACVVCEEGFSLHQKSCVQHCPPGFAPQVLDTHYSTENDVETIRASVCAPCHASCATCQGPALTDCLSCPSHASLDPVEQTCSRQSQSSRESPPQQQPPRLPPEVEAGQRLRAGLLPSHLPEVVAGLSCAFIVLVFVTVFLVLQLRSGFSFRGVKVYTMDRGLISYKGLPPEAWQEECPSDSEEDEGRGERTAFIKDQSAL

| Structure (SMILES) | inhibition at 100 µM [4] [%] | viability at 2 h, 100 µM [6] [%] | Activity [7] [%] | viability at 2 h, 100 µM [8] [%] | Ki [10] [nM] | further results |
| --- | --- | --- | --- | --- | --- | --- |
| CN1CCN(c2ncc(Oc3cc(CN4CCC(CC(=O)O)CC4)cc(-c4cc(Cl)cc(Cl)c4)n3)cn2)CC1 | – | – | – | – | – | pXC50 [1]: 7.8; inhibition in vivo at 10 mg/kg [2]: 66%; inhibition in vivo at 10 mg/kg [3]: 46% |
| CS(=O)(=O)CCCN1CCN(c2ncc(Oc3cc(CN4CCC(CC(=O)O)CC4)cc(-c4cc(Cl)cc(Cl)c4)n3)cn2)CC1 | – | – | – | – | – | pXC50 [1]: 7.6; inhibition in vivo at 10 mg/kg [2]: 40%; inhibition in vivo at 10 mg/kg [3]: -1% |
| N=C(N)Nc1ccc(O[C@H]2C[C@@H](Oc3ccc(NC(=N)N)cc3NC(=N)N)[C@H](NC(=N)N)C[C@@H]2NC(=N)N)cc1 | 30 | > 90 | >80 | > 90 | – | Ki [5]: 89 nM; Activity [9]: >30% |
| CC(C)(C)[C@@H]1NC(=O)[C@H](CCCNC(N)N)NC(=O)[C@H](CCCNC(=N)N)NC(=O)[C@@H](N)CCCCNC(=O)CCN2CCN(CCC(=O)NCCCC[C@@H](C(=O)NCc3ccc(C(=N)N)cc3)NC1=O)CC2 | – | – | – | – | 0.491 | – |
| C[C@@H](O)CN1CCN(c2ncc(Oc3cc(CN4CCC(CC(=O)O)CC4)cc(-c4cc(Cl)cc(Cl)c4)n3)cn2)CC1 | – | – | – | – | – | pXC50 [1]: 7.7; inhibition in vivo at 10 mg/kg [2]: 23%; inhibition in vivo at 10 mg/kg [3]: 16% |
| CC(C)(C)[C@@H]1NC(=O)[C@H](CCCNC(=N)N)NC(=O)[C@H](CCCNC(=N)N)NC(=O)[C@@H](N)CCCCNC(=O)Cc2ccc(cc2)CNC(=O)CCCC(=O)NCCCC[C@@H](C(=O)NCc2ccc(C(=N)N)cc2)NC1=O | – | – | – | – | 1.17 | – |
| N=C(N)Nc1ccc(OC2CCCC(Oc3ccc(NC(=N)N)cc3)C2)cc1 (stereo unspecified) | 40 | 70 | 30 | 70 | – | Ki [5]: 5500 nM |
| CC(=O)N[C@@H](CCCN=C(N)N)C(=O)N[C@@H](C)C(=O)N[C@@H](CCCN=C(N)N)C(=O)N[C@@H](CCCN=C(N)N)C(=O)N[C@@H](CCCN=C(N)N)C(=O)N[C@@H](CCCCN)C(=O)N[C@@H](CCCCN)C(=O)NC/C=C/CN=C(N)N (Ac-RARRRKK-X3) | – | – | – | – | 7 | half-life [11]: 3.3 h |
| N=C(N)Nc1ccc(Oc2cccc(Oc3ccc(NC(=N)N)cc3)c2)cc1 | 90 | > 20 | 70 | > 20 | – | Ki [5]: 1500 nM |
| O=C(O)CC1CCN(Cc2cc(Oc3cnc(N4CCN(CCO)CC4)nc3)nc(-c3cc(Cl)cc(Cl)c3)c2)CC1 | – | – | – | – | – | pXC50 [1]: 7.6; inhibition in vivo at 10 mg/kg [2]: 31%; inhibition in vivo at 10 mg/kg [3]: 11% |
| CC(C)[C@H](NC(=O)[C@H](CCCNC(=N)N)NC(=O)[C@@H](N)CCCNC(=N)N)C(=O)N[C@@H](CCCNC(=N)N)C(=O)NCc1ccc(C(=N)N)cc1 (H-RRVR-{NH(4-amidinobenzyl)}) | – | – | – | – | 0.11 | – |
| N=C(N)Nc1ccc(O[C@H]2C[C@@H](Oc3ccc(NC(=N)N)c4ccccc34)[C@H](NC(=N)N)C[C@@H]2NC(=N)N)c2ccccc12 | 40 | > 90 | 80 | > 90 | – | Activity [9]: 30% |
| Cc1cc(O[C@H]2C[C@@H](Oc3ccc(C(=N)N)c(C)c3)[C@H](NC(=N)N)C[C@@H]2NC(=N)N)ccc1C(=N)N | – | – | – | – | – | Ki [12]: 10 nM |
| N=C(N)Nc1ccc(OC2CCCC(Oc3ccc(NC(=N)N)cc3NC(=N)N)C2)c(NC(=N)N)c1 (stereo unspecified) | < 40 | > 90 | 70 | > 90 | – | Ki [5]: 1200 nM; Activity [9]: 30% |
| N=C(N)N[C@H]1C[C@@H](NC(=N)N)[C@H](Oc2ccc(C(=N)N)c3ccccc23)C[C@@H]1Oc1ccc(C(=N)N)c2ccccc12 | – | – | – | – | – | Ki [12]: 50 nM |
| N=C(N)Nc1ccc(Oc2cccc(Oc3ccc(NC(=N)N)cc3NC(=N)N)c2)c(NC(=N)N)c1 | < 20 | > 60 | 100 | > 60 | – | Ki [5]: 400 nM; Activity [9]: <40% |
| N=C(N)NCCC[C@@H]1NC(=O)CCCC(=O)NCCCC[C@@H](C(=O)N[C@@H](CCCNC(=N)N)C(=O)NCc2ccc(C(=N)N)cc2)NC(=O)[C@H](CCCNC(=N)N)NC(=O)[C@H](CCCNC(=N)N)NC1=O (RRRKR-{NH(4-amidinobenzyl)}; linker N-4 via Glutaryl) | – | – | – | – | 0.68 | – |
| N=C(N)N[C@H]1C[C@@H](NC(=N)N)[C@H](Oc2ccc(C(=N)N)cc2)C[C@@H]1Oc1ccc(C(=N)N)cc1 | – | – | – | – | – | Ki [12]: 2 nM |
| N=C(N)NCCC[C@@H]1NC(=O)CCCC(=O)NCCCC[C@@H](C(=O)N[C@@H](CCCNC(=N)N)C(=O)NCc2ccc(C(=N)N)cc2)NC(=O)[C@H](CCCNC(=N)N)NC1=O (RRKR-{NH(4-amidinobenzyl)}; linker N-3 via Glutaryl) | – | – | – | – | 0.504 | – |
| CC(C)(C)[C@H](NC(=O)[C@H](CCCNC(=N)N)NC(=O)Cc1ccc(CN)cc1)C(=O)N[C@@H](CCCNC(=N)N)C(=O)NCc1ccc(C(=N)N)cc1 | – | – | – | – | 0.0224 | – |

Reference: ChEMBL document CHEMBL5150003, “Why All the Fury over Furin?” (J Med Chem, 2022)
